Read-outs that look alike come from different tables or passages of the source.
Assays:
[1] = system: Key Broadleaf Weed and Crop Species; assay: Post-Emergent Test II (Table 5); assay type: in vivo; settings: post-emergence, 336 h; for pest or weed control at 70 g/ha: application rate 70 (kg ai/ha; footnote: g ai/ha); for pest or weed control at 140 g/ha: application rate 140 (kg ai/ha; footnote: g ai/ha)
In short: (§1)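 Post-emergence greenhouse spray, 1st-2nd true leaf stage; track sprayer, 187 L/ha; acetone/DMSO stock diluted in aqueous acetone/IPA/DMSO with Atplus 411F and Triton X-155; rates 1× to 1/16×; subirrigated; visual injury 0 (none) to 100% (complete kill) at 14 days.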

[2] = system: Key Grass and Sedge Weeds as well as Grass Crops; assay: Post-Emergent Test II (Table 6); assay type: in vivo; settings: post-emergence, 336 h, 14 days after application; for pest or weed control at 70 g/ha: 70 g ai/ha; for pest or weed control at 140 g/ha: 140 g ai/ha
In short: as §1

[3] = Abutilon theophrasti, ABUTH: velvetleaf (Abutilon theophrasti), read-out: Visual Growth Reduction (%) 14 Days After Application ABUTH
[4] = Amaranthus retroflexus, AMARE: redroot pigweed (Amaranthus retroflexus), read-out: Visual Growth Reduction (%) 14 Days After Application AMARE
[5] = Brassica napus, BRSSS: oilseed rape, canola (Brassica napus), read-out: Visual Growth Reduction (%) 14 Days After Application BRSSS
[6] = Chenopodium album, CHEAL: lambsquarters (Chenopodium album), read-out: Visual Growth Reduction (%) 14 Days After Application CHEAL
[7] = Euphorbia heterophylla, EPHHL: wild poinsettia (Euphorbia heterophylla), read-out: Visual Growth Reduction (%) 14 Days After Application EPHHL
[8] = Helianthus annuus, HELAN: sunflower (Helianthus annuus), read-out: Visual Growth Reduction (%) 14 Days After Application HELAN
[9] = Viola tricolor, VIOTR: wild pansy (Viola tricolor), read-out: Visual Growth Reduction (%) 14 Days After Application VIOTR
[10] = CYPSS, read-out: Visual Growth Reduction (%) 14 Days After Application CYPSS
[11] = DIGSA: crabgrass (Digitaria sanguinalis), read-out: Visual Growth Reduction (%) 14 Days After Application DIGSA
[12] = ECHSS, read-out: Visual Growth Reduction (%) 14 Days After Application ECHSS
[13] = ORYSS (crop), read-out: Visual Growth Reduction (%) 14 Days After Application ORYSS
[14] = SETFA: giant foxtail (Setaria faberi), read-out: Visual Growth Reduction (%) 14 Days After Application SETFA
[15] = SORVU: grain sorghum (Sorghum vulgare), read-out: Visual Growth Reduction (%) 14 Days After Application SORVU
[16] = TRZSS (crop), read-out: Visual Growth Reduction (%) 14 Days After Application TRZSS
[17] = ZEAMX: maize, corn (Zea mays), read-out: Visual Growth Reduction (%) 14 Days After Application ZEAMX

| Structure (SMILES) | pest or weed control at 70 g/ha [1, 3] [%] | pest or weed control at 140 g/ha [1, 3] [%] | pest or weed control at 70 g/ha [1, 4] [%] | pest or weed control at 140 g/ha [1, 4] [%] | pest or weed control at 70 g/ha [1, 5] [%] | pest or weed control at 140 g/ha [1, 5] [%] | pest or weed control at 70 g/ha [1, 6] [%] | pest or weed control at 140 g/ha [1, 6] [%] | pest or weed control at 70 g/ha [1, 7] [%] | pest or weed control at 140 g/ha [1, 7] [%] | pest or weed control at 70 g/ha [1, 8] [%] | pest or weed control at 140 g/ha [1, 8] [%] | pest or weed control at 70 g/ha [1, 9] [%] | pest or weed control at 140 g/ha [1, 9] [%] | pest or weed control at 70 g/ha [2, 10] [%] | pest or weed control at 140 g/ha [2, 10] [%] | pest or weed control at 70 g/ha [2, 11] [%] | pest or weed control at 140 g/ha [2, 11] [%] | pest or weed control at 70 g/ha [2, 13] [%] | pest or weed control at 140 g/ha [2, 13] [%] | also measured |
| --- | --- | --- | --- | --- | --- | --- | --- | --- | --- | --- | --- | --- | --- | --- | --- | --- | --- | --- | --- | --- | --- |
| COC(=O)c1nc(-c2ccc(Cl)c(F)c2OC)c(F)c(N)c1Cl [Compound 39, methyl 4-amino-3-chloro-6-(4-chloro-3-fluoro-2-methoxyphenyl)-5-fluoropicolinate] | 95 to 100 | 95 to 100 | 95 to 100 | 95 to 100 | 95 to 100 | 95 to 100 | 0 to 29 | 0 to 29 | 45 to 59 | 45 to 59 | 95 to 100 | 95 to 100 | 95 to 100 | 95 to 100 | 45 to 59 | 95 to 100 | 0 to 29 | 0 to 29 | 0 to 29 | 0 to 29 | pest or weed control at 70 g/ha [2, 12]: 0 to 29%; pest or weed control at 140 g/ha [2, 12]: 0 to 29%; pest or weed control at 70 g/ha [2, 14]: 0 to 29%; pest or weed control at 140 g/ha [2, 14]: 75 to 84%; pest or weed control at 70 g/ha [2, 15]: 0 to 29%; pest or weed control at 140 g/ha [2, 15]: 0 to 29%; pest or weed control at 70 g/ha [2, 16]: 30 to 44%; pest or weed control at 140 g/ha [2, 16]: 30 to 44%; pest or weed control at 70 g/ha [2, 17]: 0 to 29%; pest or weed control at 140 g/ha [2, 17]: 60 to 74% |
| COC(=O)c1nc(-c2ccc(C(F)(F)F)c(F)c2C)c(F)c(N)c1Cl [Compound 41] | 75 to 84 | 60 to 74 | 0 to 29 | 0 to 29 | 0 to 29 | 0 to 29 | 45 to 59 | 85 to 94 | 0 to 29 | 45 to 59 | 95 to 100 | 95 to 100 | 0 to 29 | 0 to 29 | 0 to 29 | 95 to 100 | 0 to 29 | 0 to 29 | 0 to 29 | 0 to 29 | pest or weed control at 70 g/ha [2, 12]: 0 to 29%; pest or weed control at 140 g/ha [2, 12]: 0 to 29%; pest or weed control at 70 g/ha [2, 15]: 0 to 29%; pest or weed control at 140 g/ha [2, 15]: 0 to 29%; pest or weed control at 70 g/ha [2, 16]: 0 to 29%; pest or weed control at 140 g/ha [2, 16]: 0 to 29%; pest or weed control at 70 g/ha [2, 17]: 0 to 29%; pest or weed control at 140 g/ha [2, 17]: 45 to 59% |
| COC(=O)c1nc(-c2ccc(C(F)(F)F)nc2OC)c(F)c(N)c1Cl [Compound 44, methyl 4-amino-5-chloro-3-fluoro-2′-methoxy-6′-(trifluoromethyl)-2,3′-bipyridine-6-carboxylate] | 45 to 59 | 75 to 84 | 0 to 29 | 95 to 100 | 45 to 59 | 60 to 74 | 85 to 94 | 85 to 94 | 0 to 29 | 0 to 29 | 85 to 94 | 85 to 94 | 0 to 29 | 0 to 29 | 0 to 29 | 0 to 29 | 0 to 29 | 0 to 29 | 0 to 29 | 0 to 29 | pest or weed control at 70 g/ha [2, 14]: 0 to 29%; pest or weed control at 140 g/ha [2, 14]: 0 to 29%; pest or weed control at 70 g/ha [2, 15]: 0 to 29%; pest or weed control at 140 g/ha [2, 15]: 0 to 29%; pest or weed control at 70 g/ha [2, 16]: 0 to 29%; pest or weed control at 140 g/ha [2, 16]: 0 to 29%; pest or weed control at 70 g/ha [2, 17]: 0 to 29%; pest or weed control at 140 g/ha [2, 17]: 0 to 29% |
